Where “and” joins values, the source holds several entries; their conditions need not be identical. Equal entries are not always repeated. Entries after “also recorded” stand apart in the source; their conditions may differ. Where two headings read alike, the source gives them in different places.
What was measured:
type I collagen [1] = assay: Extracellular collagen type I of HDFs by ELISA; format: cell-based, human; conditions: VC, 48 h, culture medium
Description: (§1) HDFs were cultured in DMEM with 10% (v/v) FBS and 1% PS at 37° C. in a humidified 5% CO2 incubator. Cells were subcultured using pancreatin solution after reaching confluence. All experiments were performed between the third and eighth passages.
(§2) The synthesis of collagen types I and III was detected using IF and ELISA. HDFs were digested and seeded in a 24-well culture plate on slides at a density of 50,000 cells/well in a complete medium. After reaching 80% confluency, cells were starved with the medium in the absence of serum for 16 h. Cells were then treated with positive controls or active samples (prepared in medium without serum) for an additional 48 h. For analysis and visualisation of types I and III collagens, the supernatants and remaining cell slides were both collected and analysed using ELISA kits and the IF staining method, respectively.
(§3) Collected supernatants were centrifuged at 10,000 rpm for 10 min and used for types I and III collagen ELISA, according to the manufacturer's protocol. The remaining cell slides were washed once with PBS and fixed in polyformaldehyde overnight at 4° C. Subsequently, the slides were treated with 0.5% Triton-X100 for 5 min. After washing, cells were blocked with 1% BSA at room temperature for 1 h. […] ImageJ software was used to quantify collagen expression from different images randomly selected in each group.

type I collagen [2] = assay: Collagen type I in HDFs by immunofluorescence; format: cell-based, human; conditions: positive drug, VC 200 μg/ml, 48 h, IF
Description: as §1, §2, §3

type III collagen = assay: Collagen type III in HDFs by immunofluorescence; format: cell-based, human; conditions: positive drug, VC 200 μg/ml, 48 h, IF
Description: as §1, §2, §3

[3] = FRAP total antioxidant capacity assay; format: biochemical
Description: Fast colourimetric methods were slightly modified for the in vitro assessment of DPPH· scavenging, ABTS·+ decolourisation capacity, and total antioxidant capacity of FRAP. The stock solutions of derivatisation reagents were diluted as follows before measurement: DPPH was diluted with absolute ethanol until the absorbance was 0.8±0.05 at λ=517 nm. ABTS working solution was prepared with phosphate buffer (0.2 M, pH 7.4) to display absorbance of 0.8±0.05 at λ=729 nm, based on a previous study. The FRAP solution was prepared according to the instructions of the FRAP kit. Absorbances were measured using an automatic microplate reader (Molecular Group Ltd., USA), and all analyses were performed using 96-well plates. All measurements were performed in triplicate, and Trolox was used as a positive control.
For total antioxidant capacity, 180 μl of FRAP solution was mixed with 5 μl of sample solution, and the absorbance was measured after 5 min at […] with PBS as the negative control. FeSO4 solutions (0.15, 0.3, 0.6, 0.9, 1.2, and 1.5 mM) were used for the calibration curve. The FRAP value represents the corresponding concentration of FeSO4 solutions (mM FeSO4). The regression equation from the standard curve was used to calculate the equivalent concentration 1 (EC1) of each sample. EC1 is defined as the concentration of the test sample with an absorbance equivalent to that of 1.0 mmol/L of FeSO4 solution, determined by its calibration curve.

[4] = tested on: fluorescent AGEs (BSA-fructose/glucose system); assay: Fluorescent AGEs formation in a BSA-fructose/glucose system; format: biochemical, bovine; conditions: read-out: IC50, AGE formation
Description: The formation of total fluorescent AGEs in glycated samples was assessed by determining their fluorescent intensities at an excitation/emission wavelength of 350/450 nm, as previously described. Glycated protein was prepared in vitro by incubating BSA in the presence of D-glucose (GLC) and D-fructose (FRC). The DOF extract and specific standards were dissolved in DMSO:water (1:4). BSA (4 mg/ml, 100 μl) was preliminary mixed with 50 μl of GLC (0.5 M) and 50 μl of FRC (0.5 M) in 20 mM sodium phosphate buffer (pH 7.4), and then 100 μl samples were added in the 96-well plate and incubated at 37.5° C. for 7 days. All solutions were prepared under sterile conditions and filtered using a 0.22-μm syringe before incubation. The assay was performed in triplicate, and AG was used as a positive control.

DPPH· scavenging assay = format: biochemical
COX-2 = molecular target: T1, COX-2 (Homo sapiens, UniProt P35354); assay: Anti-COX-2 assay (COX-2 Inhibitor Screening Kit); format: biochemical
T1 construct: purchased Beyotime S0168
T1 sequence (P35354 18-604): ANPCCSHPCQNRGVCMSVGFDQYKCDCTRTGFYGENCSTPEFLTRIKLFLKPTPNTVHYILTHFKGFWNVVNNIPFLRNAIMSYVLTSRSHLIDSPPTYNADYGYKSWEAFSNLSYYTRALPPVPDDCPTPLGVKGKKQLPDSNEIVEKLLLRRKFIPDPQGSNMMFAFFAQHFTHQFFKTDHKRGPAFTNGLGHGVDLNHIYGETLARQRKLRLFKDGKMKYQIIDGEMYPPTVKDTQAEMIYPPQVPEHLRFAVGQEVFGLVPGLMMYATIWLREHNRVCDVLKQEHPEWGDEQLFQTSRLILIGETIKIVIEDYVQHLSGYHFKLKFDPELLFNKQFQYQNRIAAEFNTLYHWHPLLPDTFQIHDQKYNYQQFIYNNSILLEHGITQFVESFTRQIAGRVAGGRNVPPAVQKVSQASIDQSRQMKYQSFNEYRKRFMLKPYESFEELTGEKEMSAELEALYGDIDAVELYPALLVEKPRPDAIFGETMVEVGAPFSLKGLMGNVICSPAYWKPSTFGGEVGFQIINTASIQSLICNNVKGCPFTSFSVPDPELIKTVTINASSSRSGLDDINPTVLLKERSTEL
Description: Anti-inflammatory activity was assessed by measuring COX-2 enzymatic inhibition on the basis of a described method by using the COX-2 Inhibitor Screening Kit (Beyotime, No. S0168). Celecoxib, a COX-2 inhibitor, was used as a positive control.

[5] = tested on: fluorescent AGEs (human serum albumin glycated with D-fructose and glucose); assay: Non-enzymatic glycation of HSA, determination of fluorescent AGEs; format: biochemical; conditions: for The inhibition rate of fluorescent AGE 360/453 nm (%): single replicate
Description: The anti-glycative ability of samples were assessed by measuring the amounts of fluorescent AGEs. 100 μL human serum albumin (4 mg/ml HSA) was glycated with 100 μL D-fructose (0.05 mol/L) and 100 μL glucose (0.05 mol/L) in the presence of samples in potassium phosphate buffer (0.2 mol/L, pH7.4, 0.06% NaN3) and incubated at 50° C. for […]. The incubated solutions were then used for the following assays. Rutin was the positive control.
The fluorescence intensity of the incubated solutions under the λex/λem=360/453 nm was recorded on microplate reader. The inhibition rate of fluorescent AGEs was calculated by the following equation: […]
where A1 is the fluorescence intensity of glycation system without samples; A2 is the fluorescence intensity of glycation system without HSA and samples; A3 is the fluorescence intensity of glycation system with HSA, sugar and samples; and A4 is the fluorescence intensity of glycation system without HSA.

[6] = Online UPLC-PDA-MS-ABTS·+ scavenging (post-column derivatisation); format: biochemical; conditions: online profiling of DOF extract
Description: Online identification of antioxidant components of DOF extract was performed using a UPLC system (Milford, MA, USA) consisting of a Waters photodiode array detector and a Waters postcolumn derivatisation system supplying fresh ABTS solution (UPLC-PDA-QDa-ABTS). […] The detection wavelengths were set at 280 and 734 nm, and the injection volume of the sample was 10 μl.
To detect radical scavengers, the UPLC system was coupled with a Waters pump, which supplied freshly prepared ABTS·+ solution into a reaction coil (15 m, 0.25 mm ID) with a flow rate of 0.2 ml/min at 37° C. Negative peaks were recorded based on a decrease of absorbance at 729 nm after the reaction of individual compounds with the ABTS·+ radical. For preliminary identification of compounds, a Waters Acquity QDa mass detector in negative ionisation mode was connected in series to PDA with the following parameters: electrospray ion source; cone voltage, 15 V; atomiser, N2; and scanning range, 100-800 m/z.

O=C1O[C@H]([C@@H](O)CO)C(O)=C1O [vitamin C]
increase of secreted collagen type I levels (type I collagen [1]): 21.94% | Collagen type I expression, % of control (type I collagen [2]): 190.20 % of control | Collagen type III expression, % of control (type III collagen): 125.90 % of control

C[C@@H]1O[C@@H](OC[C@H]2O[C@@H](Oc3c(-c4ccc(O)c(O)c4)oc4cc(O)cc(O)c4c3=O)[C@H](O)[C@@H](O)[C@@H]2O)[C@H](O)[C@H](O)[C@H]1O [Compound 24, Rutin]
antioxidant ability by FRAP (in words) [3]: great antioxidant potency | FRAP EC1 ([3]; Table 11, mean ± SD, n = 3): 205 µM | antioxidant ability by FRAP (in words) ([3]; listed as rutin): selective and significant antioxidant abilities | IC50 [4]: 222 ± 13.5 µM | antioxidant ability by DPPH (in words) (DPPH· scavenging assay): great antioxidant potency | antioxidant ability by DPPH (in words) (DPPH· scavenging assay; listed as rutin): selective and significant antioxidant abilities | COX-2 inhibition (in words) (COX-2): great COX-2 inhibition; also recorded: outstanding COX-2 inhibitory effects | COX-2 inhibition (in words) (COX-2; listed as rutin): potent COX-2 inhibitory capacity | Average % inhibition ([5]; 3.125 μg/ml): 2.02% | The inhibition rate of fluorescent AGE 360/453 nm (%) ([5]; 3.125 μg/ml): 2.34% and −3.34% and 7.07% | Average % inhibition ([5]; 6.25 μg/ml): 22.00% | The inhibition rate of fluorescent AGE 360/453 nm (%) ([5]; 6.25 μg/ml): 18.13% and 25.69% and 22.17% | Average % inhibition ([5]; 12.5 μg/ml): 41.15% | The inhibition rate of fluorescent AGE 360/453 nm (%) ([5]; 12.5 μg/ml): 35.84% and 42.05% and 45.57% | Average % inhibition ([5]; 25 μg/ml): 61.91% | The inhibition rate of fluorescent AGE 360/453 nm (%) ([5]; 25 μg/ml): 55.85% and 64.92% and 64.97% | Average % inhibition ([5]; 50 μg/ml): 75.80% | The inhibition rate of fluorescent AGE 360/453 nm (%) ([5]; 50 μg/ml): 74.72% and 79.59% and 73.08% | Average % inhibition ([5]; 100 μg/ml): 81.90% | The inhibition rate of fluorescent AGE 360/453 nm (%) ([5]; 100 μg/ml): 81.88% and 81.51% and 82.32% | Average % inhibition ([5]; 200 μg/ml): 85.69% | The inhibition rate of fluorescent AGE 360/453 nm (%) ([5]; 200 μg/ml): 84.54% and 85.94% and 86.58% | Average % inhibition ([5]; 400 μg/ml): 91.19% | The inhibition rate of fluorescent AGE 360/453 nm (%) ([5]; 400 μg/ml): 90.91% and 91.13% and 91.53% | ABTS radical scavenging by size of negative peaks at 734 nm (in words) [6]: strongest ABTS radical scavengers

Reference: patent US20260232750A1, “COMPOSITION AND METHOD FOR INHIBITING ADVANCED GLYCATION END PRODUCTS” (ACCESS BUSINESS GROUP INTERNATIONAL LLC, priority 2022, published 2026)
